Square brackets hold non-standard residues; d marks the D form. Peptide text beside a SMILES is read from it. ξ: configuration not given here. Aoe(9ξ) = N[C@@H](CCCCCC(=O)C1CO1)C(=O)O; dPip = O=C(O)[C@H]1CCCCN1
System: RhoB
Experiment: Western/immunoblot detection of RhoB protein in TPX-treated H1299 cells
Format: cell-based, human
Details: 30 nM
Procedure: Detection of p21^waf1 and RhoB protein induction in response to trapoxin A treatment. […] Whole lysates are prepared in triple detergent lysis buffer (50 mM Tris, pH 8, 150 mM NaCl, 0.02% NaN3, 0.1% SDS, 1% Nonidet P-40, 0.5% sodium deoxycholate, 100 μg/ml phenylmethylsulfonyl fluoride, 1 μg/ml aprotinin) and proteins are separated by SDS-polyacrylamide electrophoresis, electrophoretically transferred to nitrocellulose membranes, and incubated with anti-p21^waf1 (BD Pharmingen, San Jose, Calif.) or anti-RhoB (Santa Cruz Biotechnologies, Santa Cruz Calif.). Immunoreactive proteins are visualized using ECL chemiluminescence system (Amersham Pharmacia Biotech., Piscataway, N.J.).
H1299 non-small lung carcinoma cells are treated with 30 nM trapoxin A or 0.1% dimethysulphoxide or untreated for 0, 8, 24 and 48 h for RhoB. Whole lysates are prepared in triple detergent lysis buffer (50 mM Tris, pH 8, 150 mM NaCl, 0.02% NaN3, 0.1% SDS, 1% Nonidet P-40, 0.5% sodium deoxycholate, 100 μg/ml phenylmethylsulfonyl fluoride, 1 μg/ml aprotinin) and proteins are separated by SDS-polyacrylamide electrophoresis, electrophoretically transferred to nitrocellulose membranes, and incubated with anti-RhoB (Santa Cruz Biotechnologies, Santa Cruz Calif.). Immunoreactive proteins are visualized using ECL chemiluminescence system (Amersham Pharmacia Biotech., Piscataway, N.J.). […]

O=C(CCCCC[C@@H]1NC(=O)[C@H]2CCCCN2C(=O)[C@H](Cc2ccccc2)NC(=O)[C@H](Cc2ccccc2)NC1=O)C1CO1 (stereo partly shown) [TPX, Trapoxin A] (cyclo(FF[dPip][Aoe(9ξ)]))
RhoB protein level (Western analysis): up-regulated
